This is an account of results in US12419962B2, “Quinazolines, pharmaceutical compositions, and therapeutic applications” (BioTheryX, Inc., priority 2022, dated 2025).

The assay has as its target T1, HiBiT-tagged endogenous SOS1 protein (Homo sapiens, UniProt Q07889).
T1 construct: HEK293 cells were engineered to express a HiBiT-tagged endogenous SOS1 protein; endogenous in cells; host or cells: HEK293 cells, engineered so that endogenous SOS1 carries a HiBiT tag
T1 sequence (Q07889 1-1333): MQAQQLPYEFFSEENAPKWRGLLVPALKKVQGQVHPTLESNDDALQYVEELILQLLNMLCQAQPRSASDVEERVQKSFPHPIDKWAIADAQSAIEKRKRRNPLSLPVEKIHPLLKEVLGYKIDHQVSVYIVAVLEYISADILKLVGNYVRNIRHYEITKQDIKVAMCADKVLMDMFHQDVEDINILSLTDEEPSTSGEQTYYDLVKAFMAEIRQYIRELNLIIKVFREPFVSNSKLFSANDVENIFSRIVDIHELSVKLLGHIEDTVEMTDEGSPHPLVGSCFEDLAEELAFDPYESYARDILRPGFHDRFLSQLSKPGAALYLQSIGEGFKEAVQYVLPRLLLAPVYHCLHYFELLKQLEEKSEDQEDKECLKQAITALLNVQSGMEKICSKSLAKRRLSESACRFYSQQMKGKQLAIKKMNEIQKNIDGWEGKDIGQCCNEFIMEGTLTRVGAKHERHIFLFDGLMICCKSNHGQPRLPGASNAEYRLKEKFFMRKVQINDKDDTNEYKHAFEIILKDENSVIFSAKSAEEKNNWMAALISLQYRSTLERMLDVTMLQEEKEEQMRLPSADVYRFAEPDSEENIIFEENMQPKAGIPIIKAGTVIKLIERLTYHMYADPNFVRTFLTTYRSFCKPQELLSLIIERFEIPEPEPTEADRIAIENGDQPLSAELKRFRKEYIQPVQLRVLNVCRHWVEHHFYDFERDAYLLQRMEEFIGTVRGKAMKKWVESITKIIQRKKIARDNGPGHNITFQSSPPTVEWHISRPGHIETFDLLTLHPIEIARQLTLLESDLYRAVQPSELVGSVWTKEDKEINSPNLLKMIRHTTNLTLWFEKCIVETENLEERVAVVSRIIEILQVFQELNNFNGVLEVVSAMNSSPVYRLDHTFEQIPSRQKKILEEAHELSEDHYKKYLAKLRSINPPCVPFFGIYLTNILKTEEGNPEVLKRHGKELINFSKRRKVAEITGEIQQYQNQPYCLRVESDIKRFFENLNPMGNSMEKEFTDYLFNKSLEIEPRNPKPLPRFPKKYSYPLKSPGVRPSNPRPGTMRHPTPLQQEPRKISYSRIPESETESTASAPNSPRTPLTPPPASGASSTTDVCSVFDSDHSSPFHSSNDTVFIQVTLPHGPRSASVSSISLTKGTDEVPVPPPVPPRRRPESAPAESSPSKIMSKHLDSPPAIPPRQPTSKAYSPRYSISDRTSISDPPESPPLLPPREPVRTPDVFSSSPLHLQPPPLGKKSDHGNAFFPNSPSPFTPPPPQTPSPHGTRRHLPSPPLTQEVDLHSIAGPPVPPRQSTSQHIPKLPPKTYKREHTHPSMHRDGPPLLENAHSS
Kind of assay: SOS1-HiBiT Degradation Assay. As to conditions: HEK293 cells expressing HiBiT-tagged endogenous SOS1, 6 h treatment. In kind it is cell-based. On the procedure:
HEK293 cells were engineered to express a HiBiT-tagged endogenous SOS1 protein. The cells were cultured in DMEM media supplemented with 10% fetal bovine serum, streptomycin, and penicillin. The cells were seeded in a white walled 384-well plate at 12,500 cells/well in 50 μL culture media. The cells were incubated at 37° C. under 5% CO2 overnight. The cells were then treated with DMSO (control) or a compound for 6 h at 37° C. under 5% CO2. After incubation, 25 μL media was removed from each cell and 25 μL NANO-GLO® lytic detection reagent was added to each well. After a 10 min incubation with shaking, luminescence was measured using a PERKINELMER ENVISION® multimode plate reader.
The results are summarized in Table 1, where “A” represents a DC50 of no greater than 100 nM, “B” represents a DC50 of greater than 100 nM and no greater than 500 nM; “C” represents a DC50 of greater than 500 nM and no greater than 2 μM; and “D” represents a DC50 of greater than 2 μM; and where “A′” represents a Dmax of no less than 70%, “B′” represents a Dmax of less than 70% and no less than 50%; “C′” represents a Dmax of less than 50% and no less than 30%; and “D′” represents a Dmax of less than 30%. Compounds C1 and C2 are (R)-2-(3-(1-((6,7-dimethoxy-2-methylquinazolin-4-yl)amino)ethyl)phenyl)-2,2-difluoroethan-1-ol and (R)—N-(1-(3-amino-5-(trifluoromethyl)phenyl)ethyl)-6,7-dimethoxy-2-methylquinazolin-4-amine, respectively.

A word on the DC50: it is the concentration giving 50% degradation. Read a high DC50 as degradation only at high concentration. As a reminder, the Dmax is the largest share of the target that was removed. Read a high Dmax as a fuller loss of target. `COc1cc2nc(C)nc(N[C@H](C)c3cccc(C(F)(F)CO)c3)c2cc1OC` [Compound C1, (R)-2-(3-(1-((6,7-dimethoxy-2-methylquinazolin-4-yl)amino)ethyl)phenyl)-2,2-difluoroethan-1-ol] showed a DC50 of more than 10 µM and a Dmax of 0%.
The like results for `COc1cc2nc(C)nc(N[C@H](C)c3cc(N)cc(C(F)(F)F)c3)c2cc1OC` [Compound C2, (R)—N-(1-(3-amino-5-(trifluoromethyl)phenyl)ethyl)-6,7-dimethoxy-2-methylquinazolin-4-amine] were, in that order, more than 10 µM and 0%.
